Patent publication US20250140406A1, “CLASSIFYING TUMORS AND PREDICTING RESPONSIVENESS” (Oncocyte Corporation, priority 2022, published 2025)
Like-named read-outs stand apart in the source and are kept apart here.

What was measured:
Assay type in all cases: cell-based
[1] = system: cancer cell lines classified IM, MSL, M; assay: PRISM screen compound sensitivity correlated with IM, MSL and M subtype of cell lines (101 gene signature); conditions: for TNBCType train: 101 gene signature
cancer cell lines = assay: Correlation of gene expression with PRISM compound sensitivity across cell lines (gene:compound correlate pairs)
Experimental: This list of genes (based upon gene expression and gene dependency) was analyzed by Pearson correlation with the compound sensitivity data across the training cell lines. Correlation values, p values, q values and local false discovery rates were calculated. This analysis was repeated using the same set of compounds and genes on the test set of cell lines.
A negative correlation means that the importance of the expression of that gene to cell health was linked to increased compound sensitivity. • compound gene dep train pvalue: Measure of significance for this association. • compound gene dep test corr: Correlation of gene dependency with compound sensitivity in the test data set. • TNBCType train: Classification of association of the compound sensitivity with the IM, MSL and M cell line classes in the training data set. • DTIO Corr train: Association of the compound sensitivity with the DetermaIO cell line classes in the training data set. • TNBCType test: Classification of the association of the compound sensitivity with the IM, MSL and M cell line classes in the test data set. • DTIO Corr test: Association of the compound sensitivity with the DetermaIO cell line classes in the test data set.

[2] = system: cancer cell lines, DetermaIO classes; assay: Association of PRISM compound sensitivity with DetermaIO (DTIO) cell line classes
[3] = correlation of PRISM compound sensitivity with IM subtype correlation, test cell set (188 cell lines)
[4] = correlation of PRISM compound sensitivity with M subtype correlation, test cell set (188 cell lines)
[5] = correlation of PRISM compound sensitivity with MSL subtype correlation, test cell set (188 cell lines)
[6] = correlation of PRISM compound sensitivity with DTIO (DetermaIO), test cell set (188 cell lines)
[7] = correlation of PRISM compound sensitivity with DTIO (DetermaIO), training cell set (371 cell lines)
[8] = correlation of compound sensitivity with DetermaIO (DTIO), test set
[9] = correlation of compound sensitivity with DetermaIO (DTIO), training set
[10] = correlation of PRISM compound sensitivity with DTIO, test cell set
[11] = correlation of PRISM compound sensitivity with DTIO, training cell set
[12] = correlation of PRISM compound sensitivity with IM subtype correlation, test cell set
[13] = correlation of PRISM compound sensitivity with M subtype correlation, test cell set
[14] = correlation of PRISM compound sensitivity with MSL subtype correlation, test cell set
[15] = subtype (IM, MSL or M) assigned to the compound by negative correlation of PRISM sensitivity with subtype, training cell set (371 cell lines)
[16] = subtype (IM, MSL or M) with which PRISM compound sensitivity is negatively correlated, training cell set
[17] = subtype (IM, MSL or M) with which compound sensitivity is negatively correlated, training cell set (371 cell lines)

Compound	IM Corr test [1, 3]	M Corr test [1, 4]	MSL Corr test [1, 5]	DTIO Corr test [2, 10]	DTIO Corr train [2, 11]	also measured
Cc1cc(CN2CCN(c3c(Br)cnc4nc(-c5ccc(N6CCN(C)CC6)cc5)[nH]c34)CC2)no1 [CCT137690]	−0.03424	−0.09289	−0.02426	–	–	compound gene train corr (cancer cell lines): −0.1607
COc1cc2c(NC3CCN(C(C)C)CC3)nc(N3CCC(F)(F)CC3)nc2cc1OCCCN1CCCC1 [UNC0642]	−0.2049	0.1456	0.1789	–	–	DTIO Corr test [2, 6]: −0.1219; DTIO Corr train [2, 7]: −0.0704; DTIO Corr test [2, 8]: −0.1219; DTIO Corr train [2, 9]: −0.0704; compound gene test corr (cancer cell lines): −0.295; compound gene train corr (cancer cell lines): −0.1787
CCOC(=O)c1ncc2[nH]c3ccc(OCc4ccccc4)cc3c2c1COC.Cl [ZK-93423]	–	–	–	0.1767	0.1098	DTIO Corr test [2, 8]: 0.1767; DTIO Corr train [2, 9]: 0.1098; IM Corr test [1, 12]: 0.2068; M Corr test [1, 13]: −0.1479; MSL Corr test [1, 14]: −0.01274; compound gene test corr (cancer cell lines): −0.2447; compound gene train corr (cancer cell lines): −0.1712
Cc1occc(=O)c1[O-].Cc1occc(=O)c1[O-].[O]=[V+2] [bis(maltolato)oxovanadium(IV)]	–	–	–	–	–	compound gene train corr (cancer cell lines): −0.1081
COc1cc(/C=C/c2ccc(O)cc2)cc(OC)c1 [pterostilbene]	–	–	–	–	–	DTIO Corr test [2]: −0.06647; DTIO Corr train [2]: −0.0588; IM Corr test [1]: −0.08513; M Corr test [1]: 0.06063; MSL Corr test [1]: −0.05713
CNC(=O)c1cnn(-c2nc(N)c3ncn([C@@H]4O[C@H](CO)[C@@H](O)[C@H]4O)c3n2)c1 [regadenoson]	−0.08832	0.02954	−0.05759	−0.1015	−0.1586	–
COC(=O)CC[C@@H]1N=C(c2ccccn2)c2cc(Br)ccc2-n2c(C)cnc21 [remimazolam]	0.03785	−0.0431	−0.1059	–	–	DTIO Corr test [2, 6]: −0.03395; DTIO Corr train [2, 7]: −0.02892; TNBCType train [1, 15]: MSL
COc1ccc([C@H]2CNC(=O)C2)cc1OC1CCCC1 [rolipram-S(+)]	−0.03939	−0.06383	−0.06426	–	–	DTIO Corr test [2, 6]: −0.07222; DTIO Corr train [2, 7]: −0.1043
C=C1CC[C@H](O)C/C1=C/C=C1\CCC[C@]2(C)[C@@H]([C@H](C)CC[C@@H](O)C(C)(C)O)CC[C@@H]12 [secalciferol]	−0.1254	0.07866	−0.05502	−0.09515	−0.06151	–
C/C(=N\NC(=N)N)c1cc(NC(=O)CCCCCCCCC(=O)Nc2cc(/C(C)=N/NC(=N)N)cc(/C(C)=N/NC(=N)N)c2)cc(/C(C)=N/NC(=N)N)c1 [semapimod]	–	–	–	0.207	0.01264	IM Corr test [1, 12]: 0.1267; M Corr test [1, 13]: −0.09225; MSL Corr test [1, 14]: −0.0812; TNBCType train [1, 16]: MSL
COc1ccc(-c2cc(=O)c3c(OC)c(OC)c(OC)c(OC)c3o2)cc1 [tangeritin]	–	–	–	−0.01838	−0.09411	IM Corr test [1, 12]: −0.06559; M Corr test [1, 13]: 0.04891; MSL Corr test [1, 14]: −0.06252
c1cc2c(cc1C1CCCCC1)c1c3n2CCNC3CCC1 (centres unmarked) [tetrindole]	−0.02376	0.06046	0.06072	−0.04907	−0.09692	–
CCN=C1N[C@@H]2[C@@H](O)[C@H](O)[C@@H](CO)O[C@@H]2S1 [thiamet-g]	–	–	–	0.003014	0.08206	IM Corr test [1, 12]: −0.00247; M Corr test [1, 13]: −0.01394; MSL Corr test [1, 14]: −0.01406; TNBCType train [1, 16]: MSL
O=C(NCc1ccccc1)c1csc(Nc2ccncn2)n1 [thiazovivin]	0.0391	−0.1082	−0.2135	0.04845	0.03374	TNBCType train [1, 17]: MSL
C[CH2][Hg][S]c1ccccc1C(=O)[O-].[Na+] [thiomersal]	0.1417	−0.2551	−0.1237	–	–	DTIO Corr test [2, 6]: 0.0287; DTIO Corr train [2, 7]: −0.05708; DTIO Corr test ([2]; correlation of compound sensitivity with DTIO, test set): 0.0287; DTIO Corr train ([2]; correlation of compound sensitivity with DTIO, training set): −0.05708
COc1cc(C[C@@H]2NCCc3cc(O)c(O)cc32)cc(OC)c1OC [trimethoquinol]	−0.06802	−0.00108	−0.05303	−0.05537	−0.0983	TNBCType train [1, 17]: MSL
COc1cc2ncnc(Nc3cccc(Cl)c3)c2cc1OC [tyrphostin-AG-1478]	−0.09525	0.2259	0.3434	–	–	DTIO Corr test [2, 6]: 0.02894; DTIO Corr train [2, 7]: −0.0761
CN[C@H]1CN(c2ccc3c(=O)c(C(=O)O)cn(-c4nccs4)c3n2)C[C@@H]1OC [voreloxin]	–	–	–	0.01495	−0.04486	IM Corr test [1, 12]: 0.02919; M Corr test [1, 13]: −0.09678; MSL Corr test [1, 14]: −0.06474; TNBCType train [1, 16]: MSL
Cc1nn(C)c2c1C(c1cccc(Cl)c1)=NCCN2 [zometapine]	−0.1347	0.04602	−0.04215	−0.08271	0.09146	TNBCType train [1, 17]: MSL
PF-477736	0.05795	−0.1644	−0.1066	−0.03209	−0.01779	–
Ro-25-6981	–	–	–	−0.1247	−0.07012	IM Corr test [1, 12]: −0.1513; M Corr test [1, 13]: 0.04707; MSL Corr test [1, 14]: −0.0147
iodoquinol	0.03942	−0.09894	−0.104	–	–	DTIO Corr test [2, 6]: 0.03163; DTIO Corr train [2, 7]: −0.06766; TNBCType train [1, 15]: MSL
repsox	–	–	–	–	–	DTIO Corr test [2]: −0.03254; DTIO Corr train [2]: −0.05665; IM Corr test [1]: −0.07924; M Corr test [1]: 0.1062; MSL Corr test [1]: 0.08697
salvianolic-acid-B	0.001211	−0.08646	−0.06128	0.002256	−0.1092	TNBCType train [1, 17]: MSL
